The record followed here is patent US20220175710A1, “COMBINATION THERAPY” (Akershus Universitetssykehus HF, priority 2019, published 2022).

Common to all, as to format: cell-based, human
In assay [1] the test system is CHRNA7. Put plainly: Western blot of CHRNA7 (56 kDa band) in TPA differentiated THP-1 cells. The following applies: FIG. 5; co-stimulation with DHA and Aβ1-40 peptide, compared with DHA alone.
In another assay the test system is THP-1 cells. Kind of assay: IP LC-MS of Abeta-40 degradation in monocytic THP-1 cells. The protocol: Firstly, a cell model was used to study the effect of the omega-3 fatty acid DHA on degradation of amyloid beta. Here, the THP-1 cells were incubated with and without DHA (1 μM), and subsequently with Abeta (1-40 aa, 10 ng/μL). Secondly, monocyte from healthy controls (NC) and patients with neurodegenerative diseases (AD) were isolated. In both these cases, the cells were lysed and IP LC-MS was performed.
In FIG. 1, each bar in the graph represents the accumulated cleavage sites on each position along the 40 amino acids in Abeta 1-40. Thus the bar contains peptides of various lengths, but with the same start or end amino acid. Three parallels were analysed for each condition/sample group, which refers to the triplicate incubations of each condition, with or without DHA.
Monocytic THP-1 cells were used as a model system, and IP LC-MS as analytical approach to investigate the effect of DHA on monocytic Abeta-40 processing.
A THP-1 cell line culture was matured and differentiated, split to be control and stimulated parallels and this was replicated to be performed a total of 7 times (controls n=7; DHA stimulated n=7). Test cells were incubated with DHA overnight, and all samples were incubated with Abeta-40 for 1 to 2 hours. The cells were lysed by freeze-thaw cycles prior to immunoprecipitation performed with two commercial and one in-house antibody. […]

In assay [2] the test system is CHRNA7. Kind of assay: Western blot of CHRNA7 (56 kDa band) in TPA differentiated THP-1 cells. The following applies: for CHRNA7 (56 kDa protein) expression, conclusion in words: Table 1 / FIG. 4, both experiments. The protocol: The cellular samples were tested for the presence of the α7 subtype of the nicotinic acetylcholine receptor (nAChR) by Western blot analysis on THP-1 cells that were incubated with and without Abeta1-42 and with and without DHA. The purpose of this was to show monocytic membrane expression of nAChR and to explore altered regulation of this receptor in response to DHA stimulation.
The THP-1 cells were seeded in 6-well plates with 2 mL per well at a concentration of 830 000 cells/mL (experiment 1) or 860 000 cells/ml (experiment 2), and differentiated using 100 nM TPA (12-O-Tetradecanoylphorbol-13-Acetate) for 24 hours. For the experiments, DHA was added to give a concentration of 100 uM (experiment 1) or 10 uM and 100 uM (experiment 2), and Aβ42 was added at a final concentration of 2.5 ng/ul.
The cells were incubated overnight (18 hours). Each DHA experiment had parallels of cells not incubated with DHA. After incubation the cells were kept cold, scraped loose and transferred to 15-ml tubes. Cells were washed twice with cold PBS before resuspended in 100 ul PBS and transferred to an Eppendorf tube. The cells were lysed through five freeze thaw cycles, and total protein in each sample was determined by the BCA protein assay. Samples were stored at −80° C. upon analysis.
Western blot analysis was performed cat no 21379-1-AP, Proteintech, using 1:1000 using dilution. The secondary antibody was a goat anti-rabbit IgG-HRP (cat no 4030-05, Southern Biotech) diluted 1:2000. Solvents for dilutions were as described below.
Samples were dissolved in 4× Laemmli buffer w/ b-ME (BioRad and, respectively) denatured at 95° C. for 5 min, and a quantity of 12 μg protein/sample/well was loaded to the gel. A volume of 10 uL of Precision Plus protein Dual Xtra Color Standards (BioRad) was used for molecular weight estimation. The samples were resolved in 8-16% gradient SDS-PAGE (Criterion TGX precast gels, BioRad) and immunoblotted onto PVDF membranes (GE Healthcare). Membranes were blocked in 5% non-fat dried milk in 1× Tris Buffered Saline containing 0.1% Tween20 (1×TBS-T) (BioRad) at room temperature for 1 h and incubated overnight at 4° C. with primary antibodies in 1×TBS-T with 1% non-fat dried milk. After washing, the membranes were incubated with secondary antibody in 5% non-fat dried milk in 1×TBS-T for 1 h at room temperature. The blots were visualized by ECL Plus Western blotting detection system (GE Healthcare) according to the supplier's instructions. Membranes were visualized on the LAS-3000 mini (Fujifilm Corporation) and band intensities were quantified using MultiGauge analysis software (Fujifilm Corporation).
Bands presented are at the predicted MW of the nAChR (56 kDa).
(§1) DHA: Docosahexaenoic acid, Aβ1-40 peptides: the conventional amyloid beta peptide containing 40 amino acids.
A general note: Immunoblotting shows a protein as a band on a membrane.

Assay [3] has as its system CHRFAM7A. Kind of assay: Quantitative PCR of CHRFAM7A transcription in THP-1 monocyte cultures. The settings on record: for CHRFAM7A transcription (quantitative PCR): FIG. 6; for CHRFAM7A ("M") transcription relative to TPA-treated unstimulated condition: FIG. 7, overnight. The procedure:
(§2) The human acute monocytic leukemia cell line THP-1 (ATCC TIB-202, ATCC, US) was cultured in RPMI 1640 with GlutaMax (Gibco, Life Technologies, UK) supplemented with 10% fetal bovine serum (FBS), (Gibco, Life Technologies, UK) and 1% Antibiotic/Antimycotic (Gibco, Life Technologies, UK) at 37° C. and 5% CO2.
(§3) 1,6 million cells were seeded in each well in 6-well plates and differentiated to macrophages by a 48 h treatment of 100 nM TPA (12-O-tetradecanoylphorbol-13-acetate), (Cell Signaling Technology, US). Cells were treated with 100 μM Docosahexaenoic acid (DHA), (Sigma Aldrich, Germany), 10 ng/ul Amyloid beta 1-40 (Aβ), (ApexBio, US), 10 μM PNU-120596, (Sigma Aldrich, Germany), 40 μM Galanthamine hydrobromide, (Sigma Aldrich, Germany) and combinations overnight (approximately 20 h).
(§4) Total RNA was isolated with the RNeasy Plus Mini kit (Qiagen) using genomic DNA eliminator columns. THP-1 cells were lysed directly in the wells using 350 μl RLT Plus according to the protocol and stored at −80° C. The frozen lysate was incubated at 37° C. in a water bath until completely thawed and homogenized using QIAshredder (Qiagen) spin columns. RNA was eluted in 30 μl RNase free water and the quantity assessed using the NanoDrop ND-1000 Spectrophotometer (NanoDrop Technologies).
(§5) 1 μg total RNA was reverse transcribed using the QuantiTect cDNA Reverse Transcription Kit (Qiagen). Due to low CHRNA7 expression (Cq values>38, Table 2), we increased RNA input to 2 μg, changed the reverse transcription kit to High Capacity Reverse Transcription Kit (Life Technologies AS) and the cDNA was preamplified using TaqMan PreAmp Master Mix (Life Technologies AS), running 18 cycles and diluted 1:20 (FIG. 7). We then obtained Cq values<27 (average 25,4) for CHRNA7 and <20 (average 18,6 for CHRFAM7A). Absolute quantification was run using CHRFAM7A and CHRNA7 synthetic oligonucleotides standards (GeneArt, Life Technologies AS). 2.5 ul cDNA diluted 1:20 after preamplification was applied per qPCR reaction using TaqMan gene expression assays CHRFAM7A (Hs04189909_m1) and CHRNA7 (Hs01063372_m1) (Thermo Fisher) and TaqMan Gene expression Master Mix (Life Technologies AS) in a total volume of 10 μl and run in triplicates on Quant Studio 7 (Applied Biosystems).

Assay [4] deals with CHRNA7. Put plainly: Quantitative PCR of CHRNA7 transcription in THP-1 monocyte cultures. The following applies: for CHRNA7 transcription (quantitative PCR): FIG. 6; for N/M ratio (CHRNA7/CHRFAM7A transcription) / CHRNA7 ("N") transcription relative to TPA-treated unstimulated condition: FIG. 7; for CHRNA7 ("N") transcription relative to TPA-treated unstimulated condition: overnight. The protocol:
as §2, §3, §4, §5

Assay [5] deals with CHRFAM7A. Kind of assay: Western blot of CHRFAM7A in differentiated THP-1 cells. The settings on record: FIG. 5.
Description: as §1

Setting [6] is: co-stimulation with DHA and Aβ1-40 peptide, compared with DHA alone.
Where [7] appears, read: stimulus as labelled plus Amyloid β 1-40 10 ng/ul.
Setting [8] is: stimulus as labelled, nothing else added, 100 μM DHA, 10 μM PNU-120596, 40 μM Galanthamine hydrobromide, 10 ng/ul Aβ 1-40.

Entries after “also recorded” stand apart in the source; their conditions may differ.

For the compound `CC/C=C\C/C=C\C/C=C\C/C=C\C/C=C\C/C=C\CCC(=O)O` [DHA, (4Z, 7Z, 10Z, 13Z, 16Z, 19Z)-4,7, 10, 13, 16, 19-docosahexaenoic acid], the “CHRNA7 expression (Western blot)” value was “more pronounced” in the assay with CHRNA7 [1] and “increase” in the assay with CHRNA7 [2] (FIG. 5, DHA alone). In addition, the “Abeta cut pattern (enzymatic activities), DHA versus no DHA” value in the assay with THP-1 cells (DHA 1 μM, then Abeta 1-40 10 ng/μL, FIG. 1) is reported as “differing enzymatic activities”. Moreover, the “average ratio of catabolic peptides in DHA versus control samples” value in the assay with THP-1 cells (DHA overnight, then Abeta-40 for 1 to 2 hours, controls n=7, DHA stimulated n=7, semi-quantitative) was 1.3 (12% RSD). Moreover, the “~56 kDa Band signal intensity” value in the assay with CHRNA7 [2] (Exp 1, 100 uM Dha alone, TPA differentiated THP-1, 18 hours) was found to be 3.5E+06; in the assay on CHRNA7 [2] (Exp 1, Ab1-42 (2.5 ng/ul) + 100 uM Dha, 18 hours), 3.0E+06; in the assay with CHRNA7 [2] (Exp 2, Ab1-42 (2.5 ng/ul) + 10 uM Dha, 18 hours), 2.6E+06; in the assay with CHRNA7 [2] (Exp 2, Ab1-42 (2.5 ng/ul) + 100 uM Dha, 18 hours) it was 2.7E+06. The “CHRNA7 (56 kDa protein) expression, conclusion in words” value in the assay on CHRNA7 [2] is listed as “upregulation”. Besides, the figures for the “CHRFAM7A transcription (quantitative PCR)” value with CHRFAM7A [3] (DHA alone) and with CHRFAM7A [3] (setting [6]) were “decrease” and “more pronounced”, respectively. The “CHRFAM7A ("M") transcription relative to TPA-treated unstimulated condition” value in the assay with CHRFAM7A [3] (setting [7]) is “reduces”; with CHRFAM7A [3] (setting [8]), “reduced”. Further, the “CHRNA7 transcription (quantitative PCR)” value in the assay with CHRNA7 [4] (DHA alone) is listed as “increase”; in the assay on CHRNA7 [4] (setting [6]), “more pronounced”. For the same compound, the “N/M ratio (CHRNA7/CHRFAM7A transcription)” value in the assay on CHRNA7 [4] (setting [7]) is “increased; also recorded: higher”; in the assay with CHRNA7 [4] (stimulus as labelled, no Amyloid β added) it was “increased”. Moreover, the “CHRNA7 ("N") transcription relative to TPA-treated unstimulated condition” value was “unaltered; also recorded: increases” in the assay with CHRNA7 [4] (setting [7]) and “stable” in the assay on CHRNA7 [4] (setting [8]). For the same compound, the “CHRFAM7A expression (Western blot)” value is given as “decrease” in the assay with CHRFAM7A [5] (DHA alone) and “more pronounced” with CHRFAM7A [5] (setting [6]).

On to `COc1cc(OC)c(NC(=O)Nc2cc(C)on2)cc1Cl` [PNU-120596], for which the “CHRFAM7A ("M") transcription relative to TPA-treated unstimulated condition” value in the assay on CHRFAM7A [3] (setting [8]) is listed as “smaller changes”. Besides, the “CHRNA7 ("N") transcription relative to TPA-treated unstimulated condition” value in the assay with CHRNA7 [4] (setting [8]) is listed as “smaller changes”.

“Ab1-42: the conventional amyloid beta peptide containing 42 amino acids”: the “~56 kDa Band signal intensity” value is listed as 1.7E+06 with CHRNA7 [2] (Exp 1, Ab1-42 only, 2.5 ng/ul, 18 hours) and 2.1E+06 in the assay on CHRNA7 [2] (Exp 2, Ab1-42 only, 2.5 ng/ul, 18 hours). Further, in the assay on CHRNA7 [2], the “CHRNA7 (56 kDa protein) expression, conclusion in words” value is listed as “lower expression”.

Turning to “Amyloid 13: the conventional amyloid beta peptide containing 40 amino acids”, the “CHRFAM7A ("M") transcription relative to TPA-treated unstimulated condition” value with CHRFAM7A [3] (setting [8]) is on record as “reduced”. In addition, the “CHRNA7 ("N") transcription relative to TPA-treated unstimulated condition” value with CHRNA7 [4] (setting [8]) is reported as “reduced”.
